This data set has as its system CCRIS mutagenicity, Ames/micronucleus/aberration tests. The data set is described as follows: CCRIS mutagenicity studies.
The mark [1] stands for this setting: Test System: AMES SALMONELLA TYPHIMURIUM, Strain/Indicator: TA98, Metabolic Activation: NONE, Method: PREINCUBATION
[2] abbreviates: Test System: AMES SALMONELLA TYPHIMURIUM, Strain/Indicator: TA100, Metabolic Activation: NONE, Method: PREINCUBATION

This passage reports mutagenic call results from PubChem BioAssay AID1259407 (Chemical Carcinogenesis Research Information System (CCRIS), 2018).

Active and inactive are the calls of the source. No rule for the calls is given here.

Turning to `Cc1cnc2ccc3c(nc(N)n3C)c2n1`, the mutagenic call by setting is: (End Point: IN VIVO MICRONUCLEUS, Test System: BONE MARROW POLYCHROMATIC ERYTHROCYTES, Species: MOUSE, Strain/Sex: BALB/C/MALE, Route: IP INJECTION) “inactive; negative”; (Test System: AMES SALMONELLA TYPHIMURIUM, Strain/Indicator: TA98, Metabolic Activation: CYNOMOLGUS MONKEY, LIVER, MICROSOMES, Method: PREINCUBATION) “inactive; negative”; (Test System: AMES SALMONELLA TYPHIMURIUM, Strain/Indicator: TA98, Metabolic Activation: CYNOMOLOGUS MONKEY, LIVER, MICROSOMES, 2,3,7,8-TETRACHLORODIBENZO-P-DIOXIN, Method: PREINCUBATION) “active; positive”; (Test System: AMES SALMONELLA TYPHIMURIUM, Strain/Indicator: TA98, Metabolic Activation: CYNOMOLOGUS MONKEY, LIVER, MICROSOMES, 2-AMINO-3-METHYLIMIDAZO[4,5-F]QUINOLINE, Method: PREINCUBATION) “active; positive”; (Test System: AMES SALMONELLA TYPHIMURIUM, Strain/Indicator: TA98, Metabolic Activation: CYNOMOLOGUS MONKEY, LIVER, MICROSOMES, RIFAMPICIN, Method: PREINCUBATION) “inactive; negative”; (Test System: AMES SALMONELLA TYPHIMURIUM, Strain/Indicator: TA98, Metabolic Activation: HUMAN, LIVER, MICROSOMES, Method: PREINCUBATION) “active; positive”. For the same compound, the mutagenic call was “active; positive” (Test System: AMES SALMONELLA TYPHIMURIUM, Strain/Indicator: TA98, Metabolic Activation: MONKEY, LIVER, MICROSOMES, Method: PREINCUBATION); “inactive; negative” under setting [1]; “active; positive” (Test System: AMES SALMONELLA TYPHIMURIUM, Strain/Indicator: TA98, Metabolic Activation: PATAS MONKEY, LIVER, MICROSOMES, Method: PREINCUBATION); “inactive; negative” (Test System: AMES SALMONELLA TYPHIMURIUM, Strain/Indicator: TA98, Metabolic Activation: RABBIT (6 TO 9 D OF AGE), LIVER, MICROSOMES, 3-METHYLCHOLANTHRENE, Method: PREINCUBATION); “inactive; negative” (Test System: AMES SALMONELLA TYPHIMURIUM, Strain/Indicator: TA98, Metabolic Activation: RABBIT (6 TO 17 D OF AGE), LIVER, MICROSOMES, Method: PREINCUBATION); “active; positive” (Test System: AMES SALMONELLA TYPHIMURIUM, Strain/Indicator: TA98, Metabolic Activation: RABBIT (9 D OF AGE TO ADULT), LIVER, MICROSOMES, 3-METHYLCHOLANTHRENE, Method: PREINCUBATION). In addition, the mutagenic call is, setting by setting: (Test System: AMES SALMONELLA TYPHIMURIUM, Strain/Indicator: TA98, Metabolic Activation: RABBIT (17 D OF AGE TO ADULT), LIVER, MICROSOMES, Method: PREINCUBATION) “active; positive”; (Test System: AMES SALMONELLA TYPHIMURIUM, Strain/Indicator: TA98, Metabolic Activation: RAT, LIVER, MICROSOMES, Method: PREINCUBATION) “active; positive”; (Test System: AMES SALMONELLA TYPHIMURIUM, Strain/Indicator: TA98, Metabolic Activation: RAT, LIVER, S-9, AROCLOR 1254, Method: PREINCUBATION) “active; positive”; (Test System: AMES SALMONELLA TYPHIMURIUM, Strain/Indicator: TA98, Metabolic Activation: RAT, LIVER, S-9, AROCLOR 1254, Method: STANDARD PLATE) “active; positive”; under setting [2], “inactive; negative”; (Test System: AMES SALMONELLA TYPHIMURIUM, Strain/Indicator: TA100, Metabolic Activation: RAT, LIVER, S-9, AROCLOR 1254, Method: PREINCUBATION) “active; positive”. Further, the mutagenic call is, setting by setting: (Test System: AMES SALMONELLA TYPHIMURIUM, Strain/Indicator: YG1019, Metabolic Activation: RAT LIVER S-9, AROCLOR, Method: PREINCUBATION) “active; positive”; (Test System: CHINESE HAMSTER V-79, Strain/Indicator: V-79/6-THIOGUANINE, Metabolic Activation: RAT, LIVER, S-9, AROCLOR 1254) “inactive; negative”; (Test System: UDS HAMSTER HEPATOCYTES, Strain/Indicator: THY INCORP, Metabolic Activation: NONE, Method: LIQUID SCINTILLATION COUNTING) “active; positive”; (Test System: UDS HUMAN HEPATOCYTES, Strain/Indicator: THY INCORP, Metabolic Activation: NONE, Method: AUTORADIOGRAPHY) “active; positive”; (Test System: UDS MOUSE HEPATOCYTES, Strain/Indicator: THY INCORP, Metabolic Activation: NONE, Method: AUTORADIOGRAPHY) “inactive; negative”; (Test System: UDS RAT HEPATOCYTES, Strain/Indicator: THY INCORP, Metabolic Activation: NONE, Method: AUTORADIOGRAPHY) “inactive; negative”. In addition, the mutagenic call (Test System: UDS RAT HEPATOCYTES, Strain/Indicator: THY INCORP, Metabolic Activation: NONE, Method: LIQUID SCINTILLATION COUNTING) was “inactive; negative”.
Turning to `COc1ccc2cc1Oc1ccc(cc1)C[C@H]1c3c(cc4c(c3Oc3cc5c(cc3OC)CCN(C)[C@@H]5C2)OCO4)CCN1C`, the mutagenic call runs as follows: under setting [1], “inactive; negative”; (Test System: AMES SALMONELLA TYPHIMURIUM, Strain/Indicator: TA98, Metabolic Activation: RAT LIVER S-9, PHENOBARBITAL, 5,6-BENZOFLAVONE, Method: PREINCUBATION) “active; positive”; under setting [2], “inactive; negative”; (Test System: AMES SALMONELLA TYPHIMURIUM, Strain/Indicator: TA100, Metabolic Activation: RAT LIVER S-9, PHENOBARBITAL, 5,6-BENZOFLAVONE, Method: PREINCUBATION) “active; positive”; (Test System: AMES SALMONELLA TYPHIMURIUM, Strain/Indicator: TA1535, Metabolic Activation: NONE, Method: PREINCUBATION) “inactive; negative”; (Test System: AMES SALMONELLA TYPHIMURIUM, Strain/Indicator: TA1535, Metabolic Activation: RAT LIVER S-9, PHENOBARBITAL, 5,6-BENZOFLAVONE, Method: PREINCUBATION) “active; positive”. In addition, the mutagenic call is “inactive; negative” (Test System: AMES SALMONELLA TYPHIMURIUM, Strain/Indicator: TA1537, Metabolic Activation: NONE, Method: PREINCUBATION); “active; positive” (Test System: AMES SALMONELLA TYPHIMURIUM, Strain/Indicator: TA1537, Metabolic Activation: RAT LIVER S-9, PHENOBARBITAL, 5,6-BENZOFLAVONE, Method: PREINCUBATION); “inactive; negative” (Test System: ESCHERICHIA COLI, Strain/Indicator: WP2 UVR A, Metabolic Activation: NONE, Method: PREINCUBATION); “inactive; negative” (Test System: ESCHERICHIA COLI, Strain/Indicator: WP2 UVR A, Metabolic Activation: RAT LIVER S-9, PHENOBARBITAL, 5,6-BENZOFLAVONE, Method: PREINCUBATION); “active; positive” (Test System: UDS RAT HEPATOCYTES, Strain/Indicator: THYMIDINE INCORPORATION, Metabolic Activation: NONE, Method: AUTORADIOGRAPHY).
Regarding `O=c1nc(NNCCO)ccn1[C@@H]1O[C@H](CO)[C@@H](O)[C@H]1O`, under “Test System: CHINESE HAMSTER V-79, Strain/Indicator: V-79/6-THIOGUANINE, Metabolic Activation: NONE, Method: REPLATING”, the mutagenic call is “active; positive”.
For `Oc1ccc2[nH]ccc2c1`, under setting [2], the mutagenic call is “inactive; negative”.
Turning to `CC(C)=CCCC(C)CC=O` (stereo unspecified), the mutagenic call runs as follows: (Test System: AMES SALMONELLA TYPHIMURIUM, Strain/Indicator: TA97A, Metabolic Activation: NONE, Method: STANDARD PLATE) “inactive; negative”; (Test System: AMES SALMONELLA TYPHIMURIUM, Strain/Indicator: TA97A, Metabolic Activation: RAT LIVER S-9, AROCLOR 1254, Method: STANDARD PLATE) “inactive; negative”; (Test System: AMES SALMONELLA TYPHIMURIUM, Strain/Indicator: TA98, Metabolic Activation: NONE, Method: STANDARD PLATE) “inactive; negative”; (Test System: AMES SALMONELLA TYPHIMURIUM, Strain/Indicator: TA98, Metabolic Activation: RAT LIVER S-9, AROCLOR 1254, Method: STANDARD PLATE) “inactive; negative”; (Test System: AMES SALMONELLA TYPHIMURIUM, Strain/Indicator: TA100, Metabolic Activation: NONE, Method: STANDARD PLATE) “inactive; negative”; (Test System: AMES SALMONELLA TYPHIMURIUM, Strain/Indicator: TA100, Metabolic Activation: RAT LIVER S-9, AROCLOR 1254, Method: STANDARD PLATE) “inactive; negative”. The mutagenic call reads like this: (Test System: AMES SALMONELLA TYPHIMURIUM, Strain/Indicator: TA102, Metabolic Activation: NONE, Method: STANDARD PLATE) “inactive; negative”; (Test System: AMES SALMONELLA TYPHIMURIUM, Strain/Indicator: TA102, Metabolic Activation: RAT LIVER S-9, AROCLOR 1254, Method: STANDARD PLATE) “inactive; negative”.
